Drawing on patent US7598255B2 (Janssen Pharmaceutica NV, priority 2005, dated 2009), this text covers Ki for 24 molecules.

The target of one test is 5-HT2A receptor (Homo sapiens, UniProt P28223). Kind of test: Affinity for 5-HT2A receptor binding sites, radioligand binding with [3H]ketanserin. Particulars: read-out: Ki 5-HT2A, rat cortex membranes (assay 2) or NIH3T3 h5-HT2A membranes (assay 3), table does not say which.
Another test concerns the target 5-HT2B receptor (Homo sapiens, UniProt P41595). As to the kind of experiment: Affinity for 5HT2 receptor binding sites, h5-HT2B, [3H]mesulergine. Particulars: CHO h5-HT2B membranes.
Test [1] has as its target T1, human recombinant 5-HT2C receptor (Homo sapiens, UniProt P28335).
T1 sequence (P28335 33-458): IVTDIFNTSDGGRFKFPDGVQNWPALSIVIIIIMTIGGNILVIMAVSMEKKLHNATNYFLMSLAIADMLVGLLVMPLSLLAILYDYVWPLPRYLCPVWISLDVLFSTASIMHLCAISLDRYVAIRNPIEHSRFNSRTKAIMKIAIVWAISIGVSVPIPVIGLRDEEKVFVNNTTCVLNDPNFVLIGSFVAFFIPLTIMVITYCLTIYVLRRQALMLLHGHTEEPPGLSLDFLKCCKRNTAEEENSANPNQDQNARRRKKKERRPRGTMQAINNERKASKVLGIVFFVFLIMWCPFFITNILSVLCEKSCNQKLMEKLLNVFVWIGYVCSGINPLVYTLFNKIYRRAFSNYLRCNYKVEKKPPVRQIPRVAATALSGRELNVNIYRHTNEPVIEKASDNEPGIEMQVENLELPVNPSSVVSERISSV
As to the kind of experiment: Affinity for 5HT2 receptor binding sites, h5-HT2C, [3H]mesulergine. The following applies: CHO h5-HT2C membranes.

A further test deals with rat 5-HT7a receptor (Rattus norvegicus, UniProt P32305). Kind of test: Affinity for 5-HT7 receptor binding sites, radioligand binding with [3H]5-CT. Particulars: membranes of HEK-293 cells with rat 5-HT7a, 1 nM [3H]5-CT. As for the experimental part: The affinity of the compounds described in this invention for the 5-HT7 receptor binding site was evaluated by single competition radioligand binding assay. The assay was performed on membranes prepared from HEK-293 cells that had been subjected to stable transfection with the rat 5-HT7a receptor (GB: NM022938). Cells were scraped from the culture plates, suspended in Tris-HCl 50 mM pH 7.5 and collected through centrifugation (1000 rpm for 5 min). The cell pellets were homogenized (Polytron, 15 s, setting 5) in 50 mM Tris-HCl (pH 7.5), 5 mM EDTA. Following centrifugation (15,000 rpm for 25 min), membranes (135 μg protein/mL) were resuspended in the same buffer and incubated for 60 min at RT with 1 nM [^3H]5-CT in the presence of increasing concentration of test compounds. Nonspecific binding was defined in the presence of 10 μM 5-HT. Incubation was stopped by rapid filtration using the cell harvester (Packard). Radioactivity was counted in a TopCount-NXT (Packard). Experiments were conducted in triplicate.
rat 5-HT7a receptor, sequence (P32305 whole entry): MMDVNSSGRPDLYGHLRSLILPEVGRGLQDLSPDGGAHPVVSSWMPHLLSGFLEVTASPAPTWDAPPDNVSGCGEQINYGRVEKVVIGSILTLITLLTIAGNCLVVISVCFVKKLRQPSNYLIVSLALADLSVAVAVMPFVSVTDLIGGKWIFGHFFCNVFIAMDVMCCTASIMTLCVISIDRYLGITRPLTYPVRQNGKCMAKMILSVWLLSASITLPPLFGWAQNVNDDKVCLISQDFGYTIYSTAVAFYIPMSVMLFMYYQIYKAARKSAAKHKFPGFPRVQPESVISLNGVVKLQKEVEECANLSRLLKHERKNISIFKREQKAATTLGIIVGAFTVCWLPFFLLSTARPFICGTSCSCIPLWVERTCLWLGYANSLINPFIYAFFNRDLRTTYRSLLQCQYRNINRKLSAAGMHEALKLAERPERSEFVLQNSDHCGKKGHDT

Counter-ions that a name gives are not always drawn. Where only a bound is given, the exact number is not on record here.

5-HT2B receptor, sequence (P41595 whole entry): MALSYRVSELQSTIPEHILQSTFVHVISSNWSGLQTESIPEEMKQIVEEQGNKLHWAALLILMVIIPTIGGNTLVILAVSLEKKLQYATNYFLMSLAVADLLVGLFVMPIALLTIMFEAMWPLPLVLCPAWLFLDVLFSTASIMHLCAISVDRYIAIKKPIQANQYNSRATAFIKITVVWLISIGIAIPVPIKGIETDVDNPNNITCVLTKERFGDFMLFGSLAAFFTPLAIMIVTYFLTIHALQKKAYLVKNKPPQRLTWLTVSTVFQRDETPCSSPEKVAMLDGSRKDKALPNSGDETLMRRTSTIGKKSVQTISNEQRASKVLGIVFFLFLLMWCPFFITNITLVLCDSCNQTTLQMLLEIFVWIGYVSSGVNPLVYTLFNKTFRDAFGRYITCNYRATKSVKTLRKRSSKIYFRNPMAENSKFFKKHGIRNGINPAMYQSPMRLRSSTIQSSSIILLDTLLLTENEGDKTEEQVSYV
Description for 5-HT2B receptor: Sigmoidal inhibition curves were generated and fitted by nonlinear regression analysis (GraphPad Prism).
Receptor binding was performed using the human recombinant 5-HT2A (GB: X57830), 5-HT2B (GB: Z36748) and 5-HT2C (GB: M81778) receptors. The affinity of the compounds for the 3 different human 5-HT2 receptor subtypes was evaluated by competitive radioligand binding assays using [^3H]ketanserin (h5-HT2A) or [^3H]mesulergine (h5-HT2B and h5-HT2C). The assays were performed on membranes prepared from NIH3T3 stably transfected with h5-HT2A or CHO stably transfected with h5-HT2B and h5-HT2C.

A word on the Ki: it is the dissociation constant of the complex between target and ligand, obtained from inhibition or displacement. Consider `c1ccc(Cc2nc3c(c(-c4ccccc4)n2)CCN(Cc2ccccc2)C3)cc1` [Example 72, 2,7-Dibenzyl-4-phenyl-5,6,7,8-tetrahydro-pyrido[3,4-d]pyrimidine], for which the Ki is 130 nM on 5-HT2A receptor, more than 10000 nM on 5-HT2B receptor, more than 10000 nM in test [1] and more than 10000 nM at rat 5-HT7a receptor.

As to `CC(C)c1nc2c(c(-c3ccc(F)cc3F)n1)CNCC2` [Example 27, 4-(2,4-Difluoro-phenyl)-2-isopropyl-5,6,7,8-tetrahydro-pyrido[4,3-d]pyrimidine], the Ki was 60 nM on 5-HT2A receptor, more than 10000 nM on 5-HT2B receptor, more than 10000 nM in test [1] and more than 10000 nM at rat 5-HT7a receptor.

For `CC(C)c1nc(-c2ccc(C(F)(F)F)cc2)c2c(n1)C(C)CNC2` (stereo not drawn) [Example 104, 2-Isopropyl-8-methyl-4-(4-trifluoromethyl-phenyl)-5,6,7,8-tetrahydro-pyrido[4,3-d]pyrimidine], the Ki is 700 nM on 5-HT2A receptor, 500 nM on 5-HT2B receptor, 3000 nM in test [1] and more than 10000 nM at rat 5-HT7a receptor.

For the molecule `CC(C)c1nc2c(c(-c3ccccc3Oc3ccccc3)n1)CNCC2` [Example 33, 2-Isopropyl-4-(2-phenoxy-phenyl)-5,6,7,8-tetrahydro-pyrido[4,3-d]pyrimidine], the Ki (on 5-HT2A receptor; on 5-HT2B receptor; in test [1]; at rat 5-HT7a receptor) was more than 10000 nM each time.

For the molecule `N#Cc1ccc(-c2nc(C3CCCC3)nc3c2CNCC3)cc1` [Example 20, 4-(2-Cyclopentyl-5,6,7,8-tetrahydro-pyrido[4,3-d]pyrimidin-4-yl)-benzonitrile], the inhibitory constant (Ki) at 5-HT2A receptor was 700 nM; at 5-HT2B receptor, 1200 nM; in test [1] it was more than 10000 nM; at rat 5-HT7a receptor, more than 10000 nM.

`CC(C)(C)c1nc2c(c(-c3ccc(F)cc3)n1)CNCC2` [Example 1, 2-tert-Butyl-4-(4-fluoro-phenyl)-5,6,7,8-tetrahydro-pyrido[4,3-d]pyrimidine]: the Ki on 5-HT2A receptor turned out to be 4 nM; at 5-HT2B receptor it was 70 nM; in test [1], 90 nM; at rat 5-HT7a receptor it was 540 nM.

With `CCC(C)c1nc2c(c(-c3ccccc3F)n1)CNCC2` (stereo not drawn) [Example 42, 2-sec-Butyl-4-(2-fluoro-phenyl)-5,6,7,8-tetrahydro-pyrido[4,3-d]pyrimidine hydrochloride], the Ki is 120 nM on 5-HT2A receptor, more than 10000 nM on 5-HT2B receptor, more than 10000 nM in test [1] and more than 10000 nM on rat 5-HT7a receptor.

`Cc1ccc(-c2cc(CN3CCN(C)CC3)nc(Cc3ccccc3)n2)cc1` [Example 113, 2-Benzyl-4-(4-methyl-piperazin-1-ylmethyl)-6-p-tolyl-pyrimidine]: the Ki was 650 nM at 5-HT2A receptor, more than 10000 nM at 5-HT2B receptor, more than 10000 nM in test [1] and more than 10000 nM at rat 5-HT7a receptor.

`CC(C)c1nc2c(c(-c3ccccc3F)n1)CNCC2` [Example 26, 4-(2-Fluoro-phenyl)-2-isopropyl-5,6,7,8-tetrahydro-pyrido[4,3-d]pyrimidine]: the Ki at 5-HT2A receptor is 300 nM; at 5-HT2B receptor, more than 10000 nM; in test [1], more than 10000 nM; at rat 5-HT7a receptor it was more than 10000 nM.

On to `CC(C)c1nc2c(c(-c3ccccc3)n1)CCCNC2` [Example 68, 2-Isopropyl-4-phenyl-6,7,8,9-tetrahydro-5H-pyrimido[4,5-c]azepine], for which the Ki is 80 nM at 5-HT2A receptor, 660 nM on 5-HT2B receptor, 7100 nM in test [1] and more than 10000 nM at rat 5-HT7a receptor.

For the molecule `Cc1cc(-c2nc(CC(C)C)nc3c2CNCC3)ccc1F` [Example 39, 4-(4-Fluoro-3-methyl-phenyl)-2-isobutyl-5,6,7,8-tetrahydro-pyrido[4,3-d]pyrimidine], the Ki is 150 nM at 5-HT2A receptor, more than 10000 nM on 5-HT2B receptor, more than 10000 nM in test [1] and more than 10000 nM at rat 5-HT7a receptor.

Regarding `Fc1ccc(-c2nc(Cc3ccccc3)nc3c2CNCC3)cc1F` [Example 10, 2-Benzyl-4-(3,4-difluoro-phenyl)-5,6,7,8-tetrahydro-pyrido[4,3-d]pyrimidine], the Ki at 5-HT2A receptor is 200 nM; at 5-HT2B receptor, more than 10000 nM; in test [1] it was 5000 nM; on rat 5-HT7a receptor, more than 10000 nM.

With `Cc1ccc(-c2nc(C(C)C)nc3c2CNCC3)cc1` [Example 28, 2-Isopropyl-4-p-tolyl-5,6,7,8-tetrahydro-pyrido[4,3-d]pyrimidine], the Ki at 5-HT2A receptor was 100 nM; at 5-HT2B receptor it was 400 nM; in test [1] it was 3000 nM; on rat 5-HT7a receptor, more than 10000 nM.

`CCC(C)c1nc2c(c(-c3ccc(C)cc3)n1)CNCC2` (stereo not drawn) [Example 4, 2-sec-Butyl-4-p-tolyl-5,6,7,8-tetrahydro-pyrido[4,3-d]pyrimidine hydrochloride]: the Ki on 5-HT2A receptor is 20 nM; on 5-HT2B receptor, 250 nM; in test [1], 200 nM; at rat 5-HT7a receptor, more than 10000 nM.

Turning to `CC(C)c1nc(-c2ccc(F)cc2)c2c(n1)C(C)CN(Cc1ccccc1)C2` (stereo not drawn) [Example 92, 6-Benzyl-4-(4-fluoro-phenyl)-2-isopropyl-8-methyl-5,6,7,8-tetrahydro-pyrido[4,3-d]pyrimidine], the Ki at 5-HT2A receptor was 300 nM; on 5-HT2B receptor, more than 10000 nM; in test [1] it was more than 10000 nM; at rat 5-HT7a receptor, more than 10000 nM.

As for `CC(C)c1nc2c(c(-c3ccsc3)n1)CCNC2` [Example 89, 2-Isopropyl-4-thiophen-3-yl-5,6,7,8-tetrahydro-pyrido[3,4-d]pyrimidine hydrochloride], the Ki at 5-HT2A receptor was 25 nM; on 5-HT2B receptor it was 40 nM; in test [1], 1400 nM; on rat 5-HT7a receptor, more than 10000 nM.

For `CNCc1cc(-c2ccc(F)cc2)nc(C(C)C)n1` [Example 114, [6-(4-Fluoro-phenyl)-2-isopropyl-pyrimidin-4-ylmethyl]-methyl-amine], the Ki on 5-HT2A receptor is 35 nM; at 5-HT2B receptor, 300 nM; in test [1], 1000 nM; at rat 5-HT7a receptor it was more than 10000 nM.

`CC(C)c1nc2c(c(-c3ccc(F)cc3)n1)CCN(Cc1ccccc1)C2` [Example 74, 7-Benzyl-4-(4-fluoro-phenyl)-2-isopropyl-5,6,7,8-tetrahydro-pyrido[3,4-d]pyrimidine]: the Ki on 5-HT2A receptor was 47 nM; at 5-HT2B receptor it was 1900 nM; in test [1], more than 10000 nM; at rat 5-HT7a receptor, more than 10000 nM.

As for `Cc1ccc(-c2nc(C(C)C)nc3c2CCCNC3)cc1` [Example 66, 2-Isopropyl-4-p-tolyl-6,7,8,9-tetrahydro-5H-pyrimido[4,5-c]azepine hydrochloride], the Ki on 5-HT2A receptor was found to be 8 nM; on 5-HT2B receptor, 30 nM; in test [1] it was 145 nM; on rat 5-HT7a receptor, 300 nM.

Turning to `CN1CCc2nc(Cc3ccc(F)cc3)nc(-c3ccc(C#N)cc3)c2C1` [Example 15, 4-[2-(4-Fluoro-benzyl)-6-methyl-5,6,7,8-tetrahydro-pyrido[4,3-d]pyrimidin-4-yl]-benzonitrile], the Ki at 5-HT2A receptor is 1000 nM; on 5-HT2B receptor, more than 10000 nM; in test [1], more than 10000 nM; at rat 5-HT7a receptor, more than 10000 nM.

Turning to `CC(C)c1nc2c(c(-c3ccsc3)n1)CCN(Cc1ccccc1)C2` [Example 87, 7-Benzyl-2-isopropyl-4-thiophen-3-yl-5,6,7,8-tetrahydro-pyrido[3,4-d]pyrimidine hydrochloride], the Ki at 5-HT2A receptor is 600 nM; at 5-HT2B receptor, 2000 nM; in test [1] it was more than 10000 nM; at rat 5-HT7a receptor, more than 10000 nM.

For the molecule `CC(C)c1nc2c(c(-c3ccc(F)cc3)n1)CCCC2` [Example 111, 4-(4-Fluoro-phenyl)-2-isopropyl-5,6,7,8-tetrahydro-quinazoline], the inhibition constant Ki on 5-HT2A receptor was 300 nM; at 5-HT2B receptor, 3500 nM; in test [1], more than 10000 nM; at rat 5-HT7a receptor it was more than 10000 nM.

Turning to `CC(C)c1nc(-c2ccc(F)c(Cl)c2)c2c(n1)C(C)CNC2` (stereo not drawn) [Example 101, 4-(3-Chloro-4-fluoro-phenyl)-2-isopropyl-8-methyl-5,6,7,8-tetrahydro-pyrido[4,3-d]pyrimidine hydrochloride], the Ki on 5-HT2A receptor was 400 nM; on 5-HT2B receptor, more than 10000 nM; in test [1], more than 10000 nM; at rat 5-HT7a receptor, more than 10000 nM.

`Cc1nc2c(c(-c3ccc(Cl)cc3)n1)CCNCC2` [Example 51, 4-(4-Chloro-phenyl)-2-methyl-6,7,8,9-tetrahydro-5H-pyrimido[4,5-d]azepine]: the inhibition constant Ki on 5-HT2A receptor was 470 nM; at 5-HT2B receptor, 140 nM; in test [1] it was 9000 nM; on rat 5-HT7a receptor, more than 10000 nM.
